According to ChEMBL document CHEMBL3046027, “In vitro and in vivo antifungal activity of synthetic pure isothiocyanates against Sclerotinia sclerotiorum” (Pest Manag Sci, 2011):

Key:
Sclerotinia sclerotiorum [1] = assay: In vivo antifungal Sclerotinia sclerotiorum in Pepper (Capsicum annuum L. cv. Sera Demre) assessed as inhibition of mycelial growth in volatile phase at 292 umol/L measured after 10 to 14 weeks; format: functional
Sclerotinia sclerotiorum [2] = assay: Antifungal activity against Sclerotinia sclerotiorum assessed as inhibition of mycelial growth in contact phase at 4387 umol/l measured at 20 degC after 5 days; format: functional; settings: 120 h, read-out: GI
Sclerotinia sclerotiorum [3] = assay: Antifungal activity against Sclerotinia sclerotiorum assessed as inhibition of mycelial growth in contact phase at 2924 umol/l measured at 20 degC after 5 days; format: functional; settings: 120 h, read-out: GI
Sclerotinia sclerotiorum [4] = assay: Antifungal activity against Sclerotinia sclerotiorum assessed as inhibition of mycelial growth in contact phase at 1462 umol/l measured at 20 degC after 5 days; format: functional; settings: 120 h, read-out: GI
Sclerotinia sclerotiorum [5] = assay: Antifungal activity against Sclerotinia sclerotiorum assessed as inhibition of mycelial growth in contact phase at 1316 umol/l measured at 20 degC after 5 days; format: functional; settings: 120 h, read-out: GI
Sclerotinia sclerotiorum [6] = assay: Antifungal activity against Sclerotinia sclerotiorum assessed as inhibition of mycelial growth in contact phase at 1024 umol/l measured at 20 degC after 5 days; format: functional; settings: 120 h, read-out: GI
Sclerotinia sclerotiorum [7] = assay: Antifungal activity against Sclerotinia sclerotiorum assessed as inhibition of germination in volatile phase at 439 umol/l measured at 20 degC after 5 days; format: functional; settings: 120 h
Sclerotinia sclerotiorum [8] = assay: Antifungal activity against Sclerotinia sclerotiorum assessed as inhibition of germination in volatile phase at 146 umol/l measured at 20 degC after 5 days; format: functional; settings: 120 h
Sclerotinia sclerotiorum [9] = assay: Antifungal activity against Sclerotinia sclerotiorum assessed as inhibition of germination in volatile phase at 73 umol/l measured at 20 degC after 5 days; format: functional; settings: 120 h
Sclerotinia sclerotiorum [10] = assay: Fungistatic activity in Sclerotinia sclerotiorum assessed as inhibition of carpogenic germination in volatile phase at 1460 umol/l measured at 20 degC after 5 days relative to control; format: functional; settings: 120 h
Sclerotinia sclerotiorum [11] = assay: Fungistatic activity in Sclerotinia sclerotiorum assessed as inhibition of carpogenic germination in volatile phase at 732 umol/l measured at 20 degC after 5 days relative to control; format: functional; settings: 120 h
Sclerotinia sclerotiorum [12] = assay: Fungistatic activity in Sclerotinia sclerotiorum assessed as inhibition of carpogenic germination in volatile phase at 146 umol/l measured at 20 degC after 5 days relative to control; format: functional; settings: 120 h
Sclerotinia sclerotiorum [13] = assay: In vivo antifungal Sclerotinia sclerotiorum in Pepper (Capsicum annuum L. cv. Sera Demre) assessed as inhibition of mycelial growth in volatile phase at 146 umol/L measured after 10 to 14 weeks; format: functional
Sclerotinia sclerotiorum [14] = assay: Fungistatic activity in Sclerotinia sclerotiorum assessed as inhibition of carpogenic germination in volatile phase at 73 umol/l measured at 20 degC after 5 days relative to control; format: functional; settings: 120 h
Sclerotinia sclerotiorum [15] = assay: Fungistatic activity in Sclerotinia sclerotiorum assessed as sclerotial viability measured at 20 degC after 5 days; format: functional, organism-based; settings: 120 h
Sclerotinia sclerotiorum [16] = assay: Fungistatic activity in Sclerotinia sclerotiorum assessed as inhibition of mycelial growth in volatile phase measured at 20 degC after 5 days; format: functional, organism-based; settings: 120 h
Sclerotinia sclerotiorum [17] = assay: Fungistatic activity in Sclerotinia sclerotiorum assessed as inhibition of mycelial growth in contact phase measured at 20 degC after 5 days; format: functional, organism-based; settings: 120 h
Sclerotinia sclerotiorum [18] = assay: Fungitoxic activity in Sclerotinia sclerotiorum assessed as viability in volatile phase at 731 umol/l measured at 20 degC after 5 days relative to control; format: functional; settings: 120 h, read-out: GI
Sclerotinia sclerotiorum [19] = assay: Antifungal activity against Sclerotinia sclerotiorum assessed as inhibition of mycelial growth in volatile phase at 1460 umol/l measured at 20 degC after 5 days; format: functional; settings: 120 h, read-out: GI
Sclerotinia sclerotiorum [20] = assay: Antifungal activity against Sclerotinia sclerotiorum assessed as inhibition of mycelial growth in volatile phase at 1024 umol/l measured at 20 degC after 5 days; format: functional; settings: 120 h, read-out: GI
Sclerotinia sclerotiorum [21] = assay: Antifungal activity against Sclerotinia sclerotiorum assessed as inhibition of mycelial growth in volatile phase at 732 umol/l measured at 20 degC after 5 days; format: functional; settings: 120 h, read-out: GI
Sclerotinia sclerotiorum [22] = assay: Antifungal activity against Sclerotinia sclerotiorum assessed as inhibition of mycelial growth in volatile phase at 146 umol/l measured at 20 degC after 5 days; format: functional; settings: 120 h, read-out: GI
Sclerotinia sclerotiorum [23] = assay: Antifungal activity against Sclerotinia sclerotiorum assessed as inhibition of mycelial growth in volatile phase at 73 umol/l measured at 20 degC after 5 days; format: functional; settings: 120 h, read-out: GI
Sclerotinia sclerotiorum [24] = assay: Fungistatic activity in Sclerotinia sclerotiorum assessed as inhibition of mycelial growth in contact phase at 4387 umol/l measured at 20 degC after 5 days relative to control; format: functional; settings: 120 h, read-out: GI
Sclerotinia sclerotiorum [25] = assay: Fungitoxic activity in Sclerotinia sclerotiorum assessed as inhibition of mycelial growth in volatile phase at 1024 umol/l measured at 20 degC after 5 days relative to control; format: functional; settings: 120 h, read-out: GI
Sclerotinia sclerotiorum [26] = assay: Antifungal activity against Sclerotinia sclerotiorum assessed as inhibition of germination in volatile phase at 1462 umol/l measured at 20 degC after 5 days; format: functional; settings: 120 h
Sclerotinia sclerotiorum [27] = assay: Antifungal activity against Sclerotinia sclerotiorum assessed as inhibition of germination in volatile phase at 731 umol/l measured at 20 degC after 5 days; format: functional; settings: 120 h
Sclerotinia sclerotiorum [28] = assay: Fungistatic activity in Sclerotinia sclerotiorum assessed as inhibition of mycelial growth in volatile phase at 732 umol/l measured at 20 degC after 5 days relative to control; format: functional; settings: 120 h, read-out: GI

Molecule `CN=C=S` [METHYLISOTHIOCYANATE] has an inhibition in vivo at 292 µM (Sclerotinia sclerotiorum [1]) of 85%, an inhibition of growth at 4387 µM (Sclerotinia sclerotiorum [2]) of 100% and an inhibition of growth at 2924 µM (Sclerotinia sclerotiorum [3]) of 81.2%. The inhibition of growth at 1462 µM (Sclerotinia sclerotiorum [4]) was 54.7%, the inhibition of growth at 1316 µM (Sclerotinia sclerotiorum [5]) was 18.2% and the inhibition of growth at 1024 µM (Sclerotinia sclerotiorum [6]) was 10.8%. The inhibition at 439 µM (Sclerotinia sclerotiorum [7]) was 66.7%, the inhibition at 146 µM (Sclerotinia sclerotiorum [8]) was 6.7% and the inhibition at 73 µM (Sclerotinia sclerotiorum [9]) was 0%. It also gave an inhibition at 1460 µM (Sclerotinia sclerotiorum [10]) of 67.5%, an inhibition at 732 µM (Sclerotinia sclerotiorum [11]) of 35% and an inhibition at 146 µM (Sclerotinia sclerotiorum [12]) of 30%. It also gave an inhibition in vivo at 146 µM (Sclerotinia sclerotiorum [13]) of 55%, an inhibition at 73 µM (Sclerotinia sclerotiorum [14]) of 30% and an EC50 (Sclerotinia sclerotiorum [15]) of 336 µM. For the same molecule, the EC50 (Sclerotinia sclerotiorum [16]) was 79 µM, the EC50 (Sclerotinia sclerotiorum [17]) was 168 µM and the inhibition of growth at 731 µM (Sclerotinia sclerotiorum [18]) was 100%. It also gave an inhibition of growth at 1460 µM (Sclerotinia sclerotiorum [19]) of 100%, an inhibition of growth at 1024 µM (Sclerotinia sclerotiorum [20]) of 100% and an inhibition of growth at 732 µM (Sclerotinia sclerotiorum [21]) of 100%. For the same molecule, the inhibition of growth at 146 µM (Sclerotinia sclerotiorum [22]) was 55.3%, the inhibition of growth at 73 µM (Sclerotinia sclerotiorum [23]) was 34.7% and the inhibition of growth at 4387 µM (Sclerotinia sclerotiorum [24]) was 100%. The inhibition of growth at 1024 µM (Sclerotinia sclerotiorum [25]) was 100%, the inhibition at 1462 µM (Sclerotinia sclerotiorum [26]) was 100% and the inhibition at 731 µM (Sclerotinia sclerotiorum [27]) was 100%. The inhibition of growth at 732 µM (Sclerotinia sclerotiorum [28]) was 100%.
